Measured values as given in US20260232847A1, “Nanoparticles For Imaging And Treatment Of Arthritis And Inflammatory Joint Diseases” (Cornell University, priority 2023, published 2026).

Tests used:
[1] = in vivo; cited from earlier work
[2] = in vitro; cited from earlier work
[3] = In vivo joint clearance pharmacokinetics after intraarticular injection, longitudinal IVIS fluorescence imaging; design: species or system rat
Procedure: Animals. All procedures were performed according to protocols approved by the Institutional Animal Care and Use Committee (IACUC) or Cornell University. Sprague Dawley male rats ([…], 300-325 g; Charles River Laboratories, Wilmington, MA) were housed in pairs under a standard 12 h light/dark cycle starting at 6:00 a.m. The animals were allowed to move freely in their cages, fed a low-fluorescence commercial diet (Teklad 2914) and were allowed access to tap water.
Animal Study Design. Rats were randomly assigned to (1) unoperated controls (naïve) and (2) those receiving ipsilateral anterior cruciate ligament transection (ACLT) and contralateral sham to model arthritic pathological joint changes (FIGS. 9A and B). Naïve rats were further split into pilot studies for intraarticular bilateral injection of Cy5 free fluorophore (n=2), unilateral C′ Dot injection with contralateral saline (n=4), and bilateral C′ Dot injection (n=4). Animals that received bilateral surgery were further split into groups where one group received no intraarticular injections (n=4) and one group received bilateral intraarticular injection of C′ Dots one week post-operatively (n=6). Selected animals underwent ACLT surgery on a randomly assigned knee via an open surgical approach under 2.5% isoflurane anesthesia at 1 L/min O2, as previously described. Complete transection of the ACL was confirmed by a cranial drawer test. A single dose of Ethiqa XR (slow release buprenorphine) was administered subcutaneously at 0.65 mg/kg just prior to ACLT surgery. The animals could ambulate, eat, and drink ad libitum after surgery.
Intraarticular injection. Under 3% isoflurane anesthesia, the lower abdominal region (distal to sternum) including the front and back of both stifles was clipped to remove fur and sterilized with three alternating wipes of iodine and ethanol. […]
In vivo longitudinal fluorescence imaging. Longitudinal fluorescence images of rats receiving Cy5 or C′ Dot intraarticular injections were recorded using the In Vivo Imaging System (IVIS) Kinetic (Perkin Elmer; Waltham, MA) over one week for Cy5 injection at the following timepoints: 0, 1, 2, 4, 8, 12, 24, 48, and 72 h, and at 7 d (FIG. 9S3). […] Each week, rat fur was clipped as described above and animal weights were recorded. […] Fluorescence was set at 640 nm/680 nm excitation/emission optimized for Cyanine-5 and C′ Dots.
IVIS image analysis. […] Total Radiant Efficiency (TRE) (area sum of ((p/sec/cm^2/sr)/(ρW/cm^2))) was recorded for each stifle at each time point for the duration of imaging. Average TRE from saline-injected stifles (n=4) was subtracted from all stifle TRE measurements as tissue fluorescence background. […]

Compound: anakinra: established DMARD, anakinra (Kineret)
- half-life in the knee / joint half-life [1]: 24 h
- duration of anti-inflammatory effects [2]: 2 days

Compound: CN1C(=CC=CC=CC2=[N+](CCCCCC(=O)O)c3ccc(S(=O)(=O)O)cc3C2(C)C)C(C)(C)c2cc(S(=O)(=O)[O-])ccc21 [Cy5, Sulfo-Cyanine-5-carboxylic acid]
- time constant τ, single exponential decay ([3]; naïve knees, Eq 2): 0.6 h
- time after which fluorescence was undetectable ([3]; naïve rat knees): 3 days
- time of signal peak ([3]; naïve rat knees, Cy5 dye injection): 0 h
- half-life t1/2,1 ([3]; t1/2=ln(2)*τ): 0.4 h
